Patent US9006396B2, “CsPCNA isoform antibodies and uses thereof” (priority 2005, dated 2015)
Where no end group is shown, it is not given here.

Columns and labels:
[1] = biological target: C20 antibody capture of recombinant PCNA (Homo sapiens, UniProt P12004); assay: Sandwich ELISA with C20 capture antibody and competing peptide; assay type: binding; details: C20 capture 1 μg/well, Ab126 detection; peptide 0.024-2400 ng/well; FIG. 15B
Description: (§1) A sandwich ELISA was performed in which either the csPCNA specific Ab126 antibody (1 μg/well) or the non-specific PCNA antibody C20 (1 μg/well) was immobilized to the ELISA plate, and used to capture the recombinant PCNA used in the assay. Residual binding sites on the ELISA plate were blocked with BSA, and recombinant PCNA was incubated with the immobilized capture antibody in the presence of a range of concentrations of competing peptide (UMPB6—(0.024 ng/well-2400 ng/well)). After washing off unbound PCNA, the bound protein was detected with the C20 antibody in the first case, and with Ab126 in the second case. These detection antibodies were added to each well of the ELISA plate. The appropriate alkaline phosphatase conjugated secondary anti-rabbit or anti-goat IgG antibody was incubated with the bound antibody in each of the ELISA plate wells, and after washing away non-specifically bound antibody with PBS-0.05% Tween 20, the amount of detection antibody bound to the captured PCNA was determined by incubating the secondary antibody remaining in each well with 1 mg/ml of p-nitrophenolphosphate for 30 minutes.

[2] = biological target: Ab126 capture of the csPCNA isoform present in recombinant PCNA (Homo sapiens, UniProt P12004); assay: Sandwich ELISA with Ab126 capture antibody and competing peptide; assay type: binding; details: Ab126 capture 1 μg/well, C20 detection; peptide 0.024-2400 ng/well; FIG. 15B
Sequence of Ab126 capture of the csPCNA isoform present in recombinant PCNA (P12004 whole entry, canonical isoform): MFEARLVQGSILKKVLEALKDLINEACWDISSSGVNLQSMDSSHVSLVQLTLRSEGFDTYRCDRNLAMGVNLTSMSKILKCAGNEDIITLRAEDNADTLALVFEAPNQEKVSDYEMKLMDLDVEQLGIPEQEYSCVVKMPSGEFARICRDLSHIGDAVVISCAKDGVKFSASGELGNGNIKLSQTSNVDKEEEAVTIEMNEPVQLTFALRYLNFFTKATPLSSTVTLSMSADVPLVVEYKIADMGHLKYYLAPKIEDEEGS
Description: as §1

Sequence of C20 antibody capture of recombinant PCNA (P12004 whole entry): as the sequence (P12004 whole entry, canonical isoform) above

With LGIPEQEY [UMPB6] the “effect on ability of C20 antibody to capture recombinant PCNA” value [1] was “no detectable effect” and the “apparent IC50 for competing for the capture antibody” value [2] was “over 1 μg/well”.
